Laboratory results taken from patent US10770169B2, “Method of providing a treatment to a subject based on a dynamic pathway map” (THE REGENTS OF THE UNIVERSITY OF CALIFORNIA, priority 2010, dated 2020).

Tested on: panel of 55 breast cancer cell lines
Experiment: Cell growth inhibition assay (Cell Titer Glo, 72 h, 9 doses; GI50, TGI, LC50)
Type: cell-based, human
Settings: for GI50: value is the negative log10 of mol/L
[1] = BT20 cell line, censored GI50 values
[2] = BT474 cell line, censored GI50 values
[3] = BT483 cell line, censored GI50 values
[4] = CAMA1 cell line, censored GI50 values
[5] = HCC38 cell line, censored GI50 values
[6] = HCC70 cell line, censored GI50 values
[7] = HCC1187 cell line, censored GI50 values
[8] = HCC1428 cell line, censored GI50 values
[9] = HCC1500 cell line, censored GI50 values
[10] = HCC1954 cell line, censored GI50 values
[11] = HCC2185 cell line, censored GI50 values
[12] = HCC3153 cell line, censored GI50 values
[13] = MDAMB134VI cell line, censored GI50 values
[14] = MDAMB175VII cell line, censored GI50 values
[15] = MDAMB453 cell line, censored GI50 values
[16] = MDAMB468 cell line, censored GI50 values
[17] = SKBR3 cell line, censored GI50 values
[18] = SUM52PE cell line, censored GI50 values
[19] = SUM149PT cell line, censored GI50 values
[20] = SUM1315MO2 cell line, censored GI50 values
[21] = UACC812 cell line, censored GI50 values
[22] = ZR75B cell line, censored GI50 values

What does the source list for `N#Cc1c(NC(=O)c2cccc3ccccc23)sc2c1CCCC2` [TCS JNK 5a]?
GI50 [1]: 5.97; GI50 [2]: 4.17; GI50 [3]: 5.94; GI50 [4]: 5.48; GI50 [5]: 5.32; GI50 [6]: 5.64; GI50 (HCC1143 cell line, censored GI50 values): 4.21; GI50 [7]: 6.08; GI50 (HCC1395 cell line, censored GI50 values): 6.21; GI50 [8]: 4.61; GI50 [9]: 5.31; GI50 [10]: 5.90; GI50 [11]: 4.66; GI50 [12]: 5.59; GI50 [13]: 4.78; GI50 [14]: 5.02; GI50 [15]: 6.12; GI50 [16]: 4.37; GI50 [17]: 5.27; GI50 [18]: 4.86; GI50 [19]: 5.46; GI50 [20]: 6.31; GI50 [21]: 5.72; GI50 [22]: 4.59; GI50 (cell line BT20): 5.97; GI50 (cell line BT474): 4.17; GI50 (cell line BT483): 5.94; GI50 (cell line CAMA1): 5.48; GI50 (cell line HCC38): 5.32; GI50 (cell line HCC70): 5.64; GI50 (cell line HCC1143): 4.21; GI50 (cell line HCC1187): 6.08; GI50 (cell line HCC1395): 6.21; GI50 (cell line HCC1428): 4.61; GI50 (cell line HCC1500): 5.31; GI50 (cell line HCC1806): 3.92; GI50 (cell line HCC1937): 3.88; GI50 (cell line HCC1954): 5.90; GI50 (cell line HCC2185): 4.66; GI50 (cell line HCC3153): 5.59

`Cc1cc(C(=O)N2CCN(c3cccc(Cl)c3)CC2)n(-c2ccccc2)n1` [XRP44X] was tested. Which GI50 (AU565 cell line, censored GI50 values) did it give?
Its GI50 is 6.35.

And the GI50 [1]?
Its GI50 is 5.29.

What about the GI50 [2] of the same compound?
Its GI50 is 5.34.

What about the GI50 [3] of the same compound?
The GI50 was 4.18.

What about the GI50 [4] of the same compound?
Its GI50 is 6.27.

And the GI50 [5]?
Its GI50 is 5.85.

What about the GI50 [6] of the same compound?
Its GI50 is 5.98.

What about the GI50 [7] of the same compound?
Its GI50 is 6.23.

And the GI50 [8]?
The GI50 was 5.85.

What about the GI50 [9] of the same compound?
The GI50 was 5.74.

And the GI50 (HCC1806 cell line, censored GI50 values)?
The GI50 was 5.92.

What about the GI50 [10] of the same compound?
The GI50 was 6.30.

What about the GI50 [11] of the same compound?
Its GI50 is 6.63.

And the GI50 [12]?
The GI50 was 5.95.

What about the GI50 (LY2 cell line, censored GI50 values) of the same compound?
Its GI50 is 6.08.

And the GI50 (MCF7 cell line, censored GI50 values)?
The GI50 was 6.40.

And the GI50 [13]?
The GI50 was 6.21.

And the GI50 [14]?
The GI50 was 5.44.

And the GI50 (MDAMB361 cell line, censored GI50 values)?
Its GI50 is 6.06.

And the GI50 (MDAMB415 cell line, censored GI50 values)?
The GI50 was 6.30.

What about the GI50 (MDAMB436 cell line, censored GI50 values) of the same compound?
The GI50 was 5.47.

What about the GI50 [15] of the same compound?
Its GI50 is 6.20.

And the GI50 [16]?
The GI50 was 5.93.

What about the GI50 [17] of the same compound?
The GI50 was 5.58.

And the GI50 [18]?
Its GI50 is 6.06.

And the GI50 [19]?
The GI50 was 5.63.

What about the GI50 (SUM159PT cell line, censored GI50 values) of the same compound?
The GI50 was 6.16.

What about the GI50 [20] of the same compound?
The GI50 was 6.11.

And the GI50 (T47D cell line, censored GI50 values)?
Its GI50 is 5.29.

And the GI50 [21]?
The GI50 was 6.30.

And the GI50 [22]?
Its GI50 is 5.90.

And the GI50 (ZR751 cell line, censored GI50 values)?
The GI50 was 5.90.

And the GI50 (cell line AU565)?
The GI50 was 6.35.

And the GI50 (cell line BT20)?
The GI50 was 5.29.

What about the GI50 (cell line BT474) of the same compound?
Its GI50 is 5.34.

What about the GI50 (cell line BT483) of the same compound?
The GI50 was 4.18.

And the GI50 (cell line CAMA1)?
The GI50 was 6.27.

What about the GI50 (cell line HCC38) of the same compound?
The GI50 was 5.85.

And the GI50 (cell line HCC70)?
Its GI50 is 5.98.

What about the GI50 (cell line HCC1187) of the same compound?
The GI50 was 6.23.

And the GI50 (cell line HCC1419)?
Its GI50 is 3.88.

And the GI50 (cell line HCC1428)?
Its GI50 is 5.85.

And the GI50 (cell line HCC1500)?
Its GI50 is 5.74.

What about the GI50 (cell line HCC1806) of the same compound?
The GI50 was 5.92.

And the GI50 (cell line HCC1937)?
The GI50 was 3.88.

And the GI50 (cell line HCC1954)?
The GI50 was 6.30.

What about the GI50 (cell line HCC2185) of the same compound?
The GI50 was 6.63.

And the GI50 (cell line HCC3153)?
The GI50 was 5.95.

What about the GI50 (cell line LY2) of the same compound?
The GI50 was 6.08.

And the GI50 (cell line MCF7)?
The GI50 was 6.40.

And the GI50 (cell line MDAMB134V)?
Its GI50 is 6.21.

What about the GI50 (cell line MDAMB175V) of the same compound?
The GI50 was 5.44.

What about the GI50 (cell line MDAMB361) of the same compound?
The GI50 was 6.06.

What about the GI50 (cell line MDAMB415) of the same compound?
The GI50 was 6.30.

And the GI50 (cell line MDAMB436)?
Its GI50 is 5.47.

And the GI50 (cell line MDAMB453)?
The GI50 was 6.20.

And the GI50 (cell line MDAMB468)?
The GI50 was 5.93.

And the GI50 (cell line SKBR3)?
The GI50 was 5.58.

What about the GI50 (cell line SUM52PE) of the same compound?
Its GI50 is 6.06.

What about the GI50 (cell line SUM149PT) of the same compound?
Its GI50 is 5.63.

What about the GI50 (cell line SUM159PT) of the same compound?
Its GI50 is 6.16.

What about the GI50 (cell line SUM1315MO) of the same compound?
Its GI50 is 6.11.

And the GI50 (cell line T47D)?
Its GI50 is 5.29.

What about the GI50 (cell line UACC812) of the same compound?
Its GI50 is 6.30.

What about the GI50 (cell line ZR75B) of the same compound?
The GI50 was 5.90.

What about the GI50 (cell line ZR751) of the same compound?
The GI50 was 5.90.

What does the source list for `COc1cc2c(Nc3ccc(NC(=O)c4ccccc4)cc3)ncnc2cc1OCCCN1CCOCC1` [ZM447439]?
GI50 (cell line AU565, censored GI50 values): 5.82; GI50 (cell line BT20, censored GI50 values): 5.29; GI50 (cell line BT474, censored GI50 values): 4.20; GI50 (cell line BT483, censored GI50 values): 4.57; GI50 (cell line CAMA1, censored GI50 values): 5.40; GI50 (cell line HCC38, censored GI50 values): 6.24; GI50 (cell line HCC70, censored GI50 values): 6.01; GI50 (cell line HCC1143, censored GI50 values): 4.98; GI50 (cell line HCC1187, censored GI50 values): 6.19; GI50 (cell line HCC1419, censored GI50 values): 5.32; GI50 (cell line HCC1428, censored GI50 values): 5.13; GI50 (cell line HCC1500, censored GI50 values): 5.28; GI50 (cell line HCC1937, censored GI50 values): 5.23; GI50 (cell line HCC2185, censored GI50 values): 5.92; GI50 (cell line MDAMB134VI, censored GI50 values): 4.66; GI50 (cell line MDAMB175VII, censored GI50 values): 4.28; GI50 (cell line MDAMB361, censored GI50 values): 5.53; GI50 (cell line MDAMB436, censored GI50 values): 5.33; GI50 (cell line MDAMB468, censored GI50 values): 6.18; GI50 (cell line SKBR3, censored GI50 values): 4.77; GI50 (cell line SUM52PE, censored GI50 values): 5.40; GI50 (cell line SUM185PE, censored GI50 values): 4.50; GI50 (cell line T47D, censored GI50 values): 4.94; GI50 (cell line UACC812, censored GI50 values): 4.88; GI50 (cell line ZR75B, censored GI50 values): 5.00; GI50 (cell line ZR751, censored GI50 values): 5.46

With `COc1cc2c(Nc3ccc(NC(=O)c4ccccc4)cc3)ncnc2cc1OCCCN1CCOCC1` [ZM 447439] as the compound, how does the GI50 (cell line AU565) read?
The GI50 was 5.82.

What about the GI50 (cell line BT20) of the same compound?
Its GI50 is 5.29.

What about the GI50 (cell line BT474) of the same compound?
Its GI50 is 4.20.

What about the GI50 (cell line BT483) of the same compound?
The GI50 was 4.57.

And the GI50 (cell line CAMA1)?
The GI50 was 5.40.

What about the GI50 (cell line HCC38) of the same compound?
Its GI50 is 6.24.

And the GI50 (cell line HCC70)?
The GI50 was 6.01.

And the GI50 (cell line HCC1143)?
Its GI50 is 4.98.

And the GI50 (cell line HCC1187)?
Its GI50 is 6.19.

What about the GI50 (cell line HCC1419) of the same compound?
Its GI50 is 5.32.

What about the GI50 (cell line HCC1428) of the same compound?
The GI50 was 5.13.

And the GI50 (cell line HCC1500)?
The GI50 was 5.28.

What about the GI50 (cell line HCC1937) of the same compound?
The GI50 was 5.23.

What about the GI50 (cell line HCC1954) of the same compound?
The GI50 was 4.48.

What about the GI50 (cell line HCC2185) of the same compound?
Its GI50 is 5.92.

What about the GI50 (cell line HCC3153) of the same compound?
The GI50 was 4.48.

And the GI50 (cell line MDAMB134V)?
The GI50 was 4.66.

And the GI50 (cell line MDAMB175V)?
The GI50 was 4.28.

What about the GI50 (cell line MDAMB361) of the same compound?
The GI50 was 5.53.

And the GI50 (cell line MDAMB415)?
Its GI50 is 4.48.

What about the GI50 (cell line MDAMB436) of the same compound?
The GI50 was 5.33.

What about the GI50 (cell line MDAMB453) of the same compound?
The GI50 was 4.45.

What about the GI50 (cell line MDAMB468) of the same compound?
Its GI50 is 6.18.

And the GI50 (cell line SKBR3)?
Its GI50 is 4.77.

And the GI50 (cell line SUM52PE)?
The GI50 was 5.40.

And the GI50 (cell line SUM149PT)?
The GI50 was 4.18.

And the GI50 (cell line SUM185PE)?
The GI50 was 4.50.

And the GI50 (cell line SUM1315MO)?
Its GI50 is 4.48.

What about the GI50 (cell line T47D) of the same compound?
Its GI50 is 4.94.

And the GI50 (cell line UACC812)?
The GI50 was 4.88.

And the GI50 (cell line ZR75B)?
The GI50 was 5.00.

And the GI50 (cell line ZR751)?
The GI50 was 5.46.

`O=c1cc(-c2ccccc2)oc2cc(O)c(O)c(O)c12` [baicalein] was tested. Which “variability in cell line response” value (across the cell line panel) did it give?
The value was “variability in cell line response was minimal”.
